Assay results reported in patent US9597361B2, “Treating a bacterial skin infection with a whole, leech saliva extract” (priority 2012, dated 2017).

How the values were obtained:
[1] = tested on: Bacillus cereus ATCC25923; assay: Kirby-Bauer disc diffusion; settings: ATCC25923, read-out: Zone of inhibition, B. cereus
Salmonella typhi = assay: Kirby-Bauer disc diffusion; assay type: cell-based; settings: Salmonella enterica, read-out: Zone of inhibition, Sal. typhi
[2] = tested on: Staphylococcus aureus ATCC25923; assay: Kirby-Bauer disc diffusion; settings: ATCC25923, read-out: Zone of inhibition, S. aureus
[3] = tested on: Pseudomonas aeruginosa ATCC27853; assay: Kirby-Bauer disc diffusion; settings: ATCC27853, read-out: Zone of inhibition, P. auroginosa
[4] = tested on: Escherichia coli ATCC35218; assay: Kirby-Bauer disc diffusion; settings: ATCC35218, read-out: Zone of inhibition, E. coli
[5] = tested on: alloxan-induced diabetic rats; assay: Antihyperglycemic activity: fasting blood glucose in alloxan-induced diabetic rats
Procedure: Male rats of Sprague Dawley strain (SD) (from Mikro Makmur Enterprise, Kuantan, Pahang Darul Makmur, Malaysia) were grouped randomly and kept at an animal post-graduate laboratory in Kulliyyah of Pharmacy, International Islamic University Malaysia (IIUM), maintained with an air conditioning system and exhaust fans. The rats were under a 12 h/12 h dark and light cycle at room temperature (25° C.). They were acclimatized to these conditions for one week prior to the experiment and housed in polypropylene cages lined with pine wood husk changed every two days. The rats were given free access to tap water and a commercial dry pellet diet, Gold Coin. The experimental procedures were conducted according to Principles and Guide to Ethical Use of Laboratory Animals approved by Ministry of Health Malaysia (Sinniah & Hussein, 2000). […]
After 24 hours of alloxanisation, the fasting blood glucose concentration (FBG) was measured every morning to check the diabetic state of the injected rats. […]
Fasting blood glucose (FBG) at two-hour intervals was recorded during the experiment period for all the experimental animals. The percentage decrease in fasting blood glucose concentration was calculated from the following equation (Madubunyi, Onoja, & Asuzu, 2010):

| Compound | zone of inhibition at 5 µg/disc [1] [mm] | zone of inhibition at 5 µg/disc (Salmonella typhi) [mm] | zone of inhibition at 5 µg/disc [2] [mm] | zone of inhibition at 5 µg/disc [3] [mm] | zone of inhibition at 5 µg/disc [4] [mm] | fasting blood glucose (FBG) ([5]; after two hours of injection (LSE p<0.05; insulin p<0.001)) | fasting blood glucose (FBG) ([5]; insulin 10 units/kg b.w s.c., after 8 hours of treatment) |
| --- | --- | --- | --- | --- | --- | --- | --- |
| O=C(O)c1cn(C2CC2)c2cc(N3CCNCC3)c(F)cc2c1=O [Cipro, ciprofloxacin] | 28 | 35 | 24 | 24 | 26 | – | – |
| insulin: insulin from bovine pancreas (≧27 units/mg), suspension in distilled water | – | – | – | – | – | sharp significant decrease | returned to the diabetic state |
